One series has as its system TNF production. Conditions: endotoxemia; nicotine 2 mg/kg i.p. 30 minutes prior to endotoxin. As to the method: Adult male BALB/c mice 8 to 12 weeks-old (20-25 g; Taconic) and adult male Sprague Dawley rats 8 to 12 weeks-old (250-300 g, Charles River Laboratories) were housed at 25° C. on a 12-hour light/dark cycle, and let acclimatize for one week before experiments were conducted. Water and regular rodent chow were available ad libitum. Experiments were performed under protocols approved by the Institutional Animal Care and Use Committee of the Feinstein Institute for Medical Research, North Shore-LIJ Health System.
Endotoxin (LPS from E. coli, 0111:B4, Sigma-Aldrich) was injected to animals (10 mg/kg, i.p. corresponding to a LD75 dose). Blood and spleens were harvested 10, 30, 60 or 120 minutes after LPS administration. We used ELISA to determine TNF concentration in serum (R&D Systems). Spleens were either snap frozen for further immunofluorescence analysis or disrupted in PBS plus protease inhibitor cocktail (Complete mini, Roche) with a tissue homogenizer (Polytron 3100, Kinematica). TNF content in spleen tissue was determined by ELISA and normalized to protein concentration (Protein Assay, BioRad). In some experiments, PBS or nicotine (Sigma-Aldrich) was injected 30 minutes (2 mg/kg, i.p.) prior to endotoxin administration. Animals were then euthanized 60 minutes later and spleens were harvested for TNF immunofluorescence or TNF quantification in tissue homogenates.

For series [1], the system named is LPS-stimulated spleen cells. In words: TNF production by LPS-stimulated spleen cells. Format: cell-based, BALB/c mice. The conditions noted are these: 5×10^6 cell/well, LPS 500 ng/mL, 4 hours; increasing concentrations; FIG. 7A. How it is done: (§1) In this example, differing concentrations of Paraoxon were included in various individual wells (having 5×10^6 cell/well) with a total volume of 250 microliters/well, and stimulated for 4 hours with LPS (500 ng/mL).

The subject of another series is spleen cells. In words: Viability of LPS-stimulated spleen cells. Conditions: concentrations of Paraoxon used in FIG. 7A; FIG. 7B. How it is done:
as §1

Entries after “also recorded” stand apart in the source; their conditions may differ.

On to `CN1CCCC1c1cccnc1` (stereo not drawn) [nicotine], for which the “TNF production by TNF-producing splenic macrophages” value with TNF production is “significantly attenuates TNF production”.

As for `CCOP(=O)(OCC)Oc1ccc([N+](=O)[O-])cc1` [Paraoxon], in series [1], the “TNF production by LPS-stimulated spleen cells” value is recorded as “dose-dependent inhibition of TNF; also recorded: dose-dependently attenuated TNF levels; also recorded: the greater the inhibition of TNF”. The “toxicity / cell viability” value in the series with spleen cells is “no significant toxicity; also recorded: without affecting cell viability; also recorded: no significant loss of viability”.

For the origin of these results see patent publication US20160096016A1, “METHODS AND SYSTEMS FOR REDUCING INFLAMMATION BY NEUROMODULATION AND ADMINISTRATION OF AN ANTI-INFLAMMATORY DRUG” (priority 2008, published 2016).
